Data set [1] deals with A549 (Non-small cell lung carcinoma cell line). Kind of data set: Cell proliferation, Assay Protocol I (CellTiter-Glo). The class given is cell-based. The conditions noted are these: Homo sapiens. The method, then: (§1) Growth inhibitory activity against the human tumor cell lines was determined using Promega's CellTiter-Glo® assay. The cell lines of interest were placed in a 96-well microculture plate (Costar® white, flat bottom #3917) in a total volume of 90 μL/well. After 24 hours of incubation in a humidified incubator at 37° C. with 5% CO2 and 95% air, 10 μL of serially diluted test compounds in growth medium were added to each well. After 96 total hours of culture in a CO2 incubator, the plated cells and CellTiter-Glo® (Promega # G7571) reagents were brought to room temperature to equilibrate for 30 minutes. 100 μL of CellTiter-Glo® reagent was added to each well. The plate was shaken for 2 minutes and then left to equilibrate for 10 minutes before reading luminescence on the Tecan GENios microplate reader.
(§2) Percent inhibition of cell growth was calculated relative to untreated control wells. All tests were performed in duplicate for each concentration level. The IC50 value for the test compounds was estimated using Prism 3.03 by curve-fitting the data.

Data set [2] deals with HT-29 (Colorectal cancer cell line). The data set is described as above. Format: cell-based. Particulars: Homo sapiens. The method, then:
as §1, §2

For data set [3], the system named is HepG2 (Hepatocellular cancer cell line). Described as above. Particulars: Homo sapiens. The class given is cell-based. The method, then:
as §1, §2

Data set [4] has as its system SW480 (Colorectal cancer cell line). Described as above. Format: cell-based. The conditions noted are these: Homo sapiens. The method, then: as §1, §2
The next data set relates to HT-29 xenograft. Kind of data set: HT-29 xenograft mouse model, tumor efficacy. Particulars: i.p. The class given is in vivo. The method, then: This example illustrates the efficacy and safety of a compound according to embodiments of the present invention, i.e., Compound 1A, using a HT-29 xenograft mouse model (a colorectal cancer model).
The HT-29 cells were maintained in vitro as a monolayer culture in McCoy's 5A medium supplemented with 10% heat inactivated fetal bovine serum, 100 U/ml penicillin and 100 μg/ml streptomycin at 37° C. in an atmosphere of 5% CO2 in air. The tumor cells were routinely subcultured twice weekly by trypsin-EDTA treatment. The cells growing in an exponential growth phase were harvested and counted for tumor inoculation.
65 mice were inoculated subcutaneously at the right flank with 3.0×10^6 HT-29 tumor cells in 0.1 ml of serum-free medium for tumor development. The treatments were started when the tumor size reached approximately 75 (50-100) mm^3. The test article administration and the animal numbers in each group are shown in the following experiment design Table 5.
The major endpoint was to see if the tumor growth can be delayed or mice can be cured. Tumor size was measured three times weekly in two dimensions using a caliper, and the volume was expressed in mm^3 using the formula: V=0.5 a×b^2 where a and b are the long and short diameters of the tumor, respectively. The tumor size was then used for calculations of both T-C and TGI values. T-C was calculated with T as the median time (in days) required for the treatment group tumors to reach a predetermined size (e.g., 1,000 mm^3), and C as the median time (in days) for the control group tumors to reach the same size. The TGI (in percent)=(T−C)/C*100% represents the tumor growth inhibition rate, T and C were the mean volume of the treated and control groups, respectively, on a given day. Tumor weight was measured at the study termination. The T/C value (in percent) was calculated where T and C are the mean tumor weights of the treated and control groups, respectively.

A further data set deals with 786-O (kidney). Put plainly: Cell proliferation assay (CellTiter-Glo Luminescent). The class given is cell-based. Particulars: Homo sapiens, 786-0, 1 mM glucose, 96 hr.
In the next data set the test system is DU145 (prostate). The data set is described as above. The conditions noted are these: Homo sapiens, DU-145, Complete media, 96 hr. The class given is cell-based.
Data set [5] in a line: H1299 nude mouse xenograft study, toxicity (body weight, deaths, organ weights). The class given is in vivo, mice. The conditions noted are these: mouse, in vivo, ip; for Deaths NTR: female, nude (nu/nu). The method, then: The animals were fed ad libitum water (reverse osmosis, 1 ppm Cl) and NIH 31 Modified and Irradiated Lab Diet® consisting of 18.0% crude protein, 5.0% crude fat, and 5.0% crude fiber. The mice were housed on irradiated Enrich-o′ Cobs™ Laboratory Animal Bedding in static microisolators on a 12-hour light cycle at 20-22° C. (68-72° F.) and 40-60% humidity.
Dosing began on D1 in four groups of mice (n=12/group in Groups 1, 3, and 4; n=6 in Group 2). XT26 and its vehicle were administered intraperitoneally (i.p.) twice daily for 28 days (b.i.d.×28), starting with the p.m. dose on D1 and ending with the a.m. dose on D29. Gemcitabine was administered i.p. once daily at three-day intervals for four doses (q3d×4). In all groups, the dosing volume of 10 ml/kg (0.2 ml/20 g mouse) was scaled to the weight of each individual animal, as measured twice weekly.
Group 1 mice received the XT26 vehicle b.i.d.×28, and served as the controls for the study. Group 2 received gemcitabine at 120 mg/kg. Group 3 was to receive XT26 at 100 mg/kg b.i.d.×28; on D21, four mice (Animals 1, 3, 4, and 5) erroneously received 200 mg/kg XT26 for their a.m. dose. Group 4 was to receive XT26 at 200 mg/kg b.i.d.×28, but dosing stopped on D9 (b.i.d.×8) because of toxicity. Group 4 dosing at 200 mg/kg resumed on D17 on a qd (once daily)×13 dosing schedule. Because of a scheduling error, the D19 dose for Group 4 mice was omitted; qd dosing occurred on Days 17, 18, and 20-28.
Animals were weighed daily on D1-5, then twice weekly until the completion of the study. The mice were observed frequently for overt signs of any adverse, treatment-related side effects.
On D10, both kidneys and the liver were harvested from each euthanized Group 4 animal. Each organ was weighed separately, fixed overnight in 10% neutral buffered formalin, and transferred to 70% ethanol.

Structures are written as SMILES. Where only a bound is given, the exact number is not on record here.

The source of these data is patent US20120302609A1, “Pyrazolines for the Modulation of PKM2” (Dynamix Pharmaceuticals LTD., priority 2011, published 2012).

Take `CCS(=O)(=O)Nc1ccc(C2=NN(C(C)=O)C(c3ccc(OC)cc3)C2)cc1` (racemic) [Compound 1A, N-(4-(1-acetyl-5-(4-methoxyphenyl)-4,5-dihydro-1H-pyrazol-3-yl)phenyl)ethanesulfonamide]: the IC50 in data set [1] is less than 40 µM; in data set [2], greater than 100 µM; in data set [3], 40 to 100 µM; in data set [4], 40 to 100 µM. The anti-tumor activity result in the data set with HT-29 xenograft (100 mg/kg Q2D) and in the data set with HT-29 xenograft (200 mg/kg QD) was “statistically significantly anti-tumor activity” in each case. For the same compound, the “TGI reached by day ten” value with HT-29 xenograft (200 mg/kg QD) and in the data set on HT-29 xenograft (400 mg/kg QD) was greater than 50% in each case. In the data set with HT-29 xenograft (400 mg/kg QD, HT-29 xenograft, BALB/c nude mice), the “Tumor Growth Inhibition (TGI)” value worked out at 42%.

In the case of `COc1ccc([C@@H]2CC(c3ccc(NS(=O)(=O)c4ccc(F)cc4)cc3)=NN2C(C)=O)cc1` [Compound 13A, (S)—N-(4-(1-acetyl-5-(4-methoxyphenyl)-4,5-dihydro-1H-pyrazol-3-yl)phenyl)-4-fluorobenzenesulfonamide], the AC50 with 786-O (kidney) was less than 3 µM; in the data set on DU145 (prostate) it was 10 to 20 µM. Also, the “Deaths NTR” value in data set [5] (100 mg/kg, 28 days) stood at 0; in data set [5] (200 mg/kg), 0. In addition, in data set [5] (200 mg/kg), the “Mean BW Nadir” value was −13.6%.
